From patent publication US6083932A, “Pharmaceutical compositions derived from ginseng and methods of treatment using same” (CV Technologies Inc., priority 1998, dated 2000)

Columns and labels:
[1] = biological target: T1, monoamine oxidase-A (Rattus norvegicus, UniProt P21396); assay: in vitro monoamine oxidase-A inhibiting activity (radiochemical, 5-hydroxytryptamine substrate); type: biochemical; conditions: read-out: inhibition of monoamine oxidase A activity
T1 construct: homogenates of rat brain; from tissue; host or cells: rat brain homogenate
T1 sequence (P21396 1-526): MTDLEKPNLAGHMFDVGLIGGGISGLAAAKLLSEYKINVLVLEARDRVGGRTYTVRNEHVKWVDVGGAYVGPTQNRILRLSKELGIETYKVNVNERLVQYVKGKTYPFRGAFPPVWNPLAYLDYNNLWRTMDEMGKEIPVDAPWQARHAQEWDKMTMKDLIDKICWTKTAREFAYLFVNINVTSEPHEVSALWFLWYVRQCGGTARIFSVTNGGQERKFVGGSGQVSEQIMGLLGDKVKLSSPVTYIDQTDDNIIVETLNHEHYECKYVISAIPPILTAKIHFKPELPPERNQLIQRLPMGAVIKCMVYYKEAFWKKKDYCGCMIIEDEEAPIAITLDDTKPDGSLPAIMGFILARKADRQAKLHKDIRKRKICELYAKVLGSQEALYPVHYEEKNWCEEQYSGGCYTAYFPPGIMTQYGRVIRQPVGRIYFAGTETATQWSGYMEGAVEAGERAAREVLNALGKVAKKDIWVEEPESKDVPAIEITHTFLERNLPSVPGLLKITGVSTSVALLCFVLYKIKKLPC
Procedure: (§1) Example 1 is a study of the effects of several extracts of HT1001, PQ4, PQ5, PQ6 and pure ginsenosides, on monoamine oxidase A (MAO A) and monoamine oxidase B (MAO B) activity in vitro.
(§2) HT-1001, related extracts and pure ginsenosides were evaluated for in vitro monoamine oxidase-A and monoamine oxidase-B inhibiting activity using the radiochemical procedure of Lyles and Callingham, Biochem. Pharmacol. 31: 1417-1424 (1982), employing either radiolabelled 5-hydroxytryptamine or β-phenylethylamine as substrates for monoamine oxidase-A (MAO-A) or monoamine oxidase-B (MAO-B) respectively. Various concentrations of the compounds of interest were incubated in appropriately diluted homogenates of rat brain in a 0.2 M potassium phosphate buffer. After a 15 minute preincubation period the reaction was initiated by the addition of substrate. Incubations proceded at 37° C. for 10 minutes. Incubation was terminated by the addition of acid and the radiolabelled products (5-hydroxyindoleacetic acid, 5-hydroxyindoleacetaldehyde or phenylacetic acid, phenylacetaldehyde) were extracted and quantified by liquid scintillation counting procedures. Incubations were done in triplicate and incubations including pheneizine a known MAO inhibitor were included as controls and for comparison. The percent inhibition of monoamine oxidase-A or monoamine oxidase-B activity compared to controls containing no experimental material was calculated.

[2] = biological target: T2, monoamine oxidase-B (Rattus norvegicus, UniProt P19643); assay: in vitro monoamine oxidase-B inhibiting activity (radiochemical, β-phenylethylamine substrate); type: biochemical; conditions: read-out: inhibition of monoamine oxidase B activity
T2 construct: homogenates of rat brain; from tissue; host or cells: rat brain homogenate
T2 sequence (P19643 1-520): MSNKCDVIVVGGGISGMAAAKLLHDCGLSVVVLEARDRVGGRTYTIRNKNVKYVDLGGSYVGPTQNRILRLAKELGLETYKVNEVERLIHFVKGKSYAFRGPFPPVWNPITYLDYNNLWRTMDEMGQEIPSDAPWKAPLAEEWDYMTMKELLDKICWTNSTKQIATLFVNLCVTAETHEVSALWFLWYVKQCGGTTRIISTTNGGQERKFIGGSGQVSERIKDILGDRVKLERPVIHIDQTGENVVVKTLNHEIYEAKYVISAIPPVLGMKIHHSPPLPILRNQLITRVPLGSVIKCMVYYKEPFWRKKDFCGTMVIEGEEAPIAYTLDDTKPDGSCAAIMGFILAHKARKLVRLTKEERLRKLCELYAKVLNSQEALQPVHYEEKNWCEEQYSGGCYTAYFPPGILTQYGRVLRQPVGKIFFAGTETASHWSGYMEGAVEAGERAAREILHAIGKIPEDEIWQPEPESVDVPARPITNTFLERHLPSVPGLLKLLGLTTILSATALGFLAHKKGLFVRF
Procedure: as §1, §2

[3] = test system: noradrenaline uptake; assay: noradrenaline uptake in hypothalamus slices; type: biochemical; conditions: 10^-5 M
From the text: (§3) We have also investigated the effects of HT1001 on noradrenaline, dopamine and 5-hydroxytryptamine reuptake and monamine oxidase A and B activity in vitro. When compared to amphetamine, HT1001 has little effect on noradrenaline or dopamine uptake. For example, at 10^-4 M (assuming a molecular weight of 900 for HT1001) HT1001 inhibits noradrenaline uptake in hypothalamus slices 3.0% whereas amphetamine at 10^-5 M inhibits uptake by 83%. […] None of these effects are dramatic.

[4] = test system: dopamine uptake; assay: dopamine uptake in striatal slices; type: biochemical; conditions: 10^-5 M
From the text: as §3

[5] = test system: 5-hydroxytryptamine uptake; assay: 5-hydroxytryptamine uptake in striatal slices; type: biochemical; conditions: 10^-5 M
From the text: as §3

[6] = test system: choline uptake into synaptosomes, whole brain; assay: choline uptake into synaptosomes from rat whole brain; type: biochemical; conditions: various doses; n=10
From the text: We also studied the effects of HT1001 on choline uptake in synaptosomes.
We have examined choline uptake in synaptosome preparations from whole brain and hippocampus in the presence of Rb1, HT1001 and HC3.
The magnitude of these effects are consistent with the previous studies.

[7] = test system: choline uptake into synaptosomes, whole brain; conditions: Benishin 1992 / previously demonstrated; cited from earlier work
[8] = test system: PC12 cells; assay: neurite outgrowth in PC12 cells; type: cell-based; conditions: seven days after treatment
Procedure: A study of the neurotrophic effects of HT1001 and some pure ginsenosides was conducted. A new mechanism of action for HT1001 was shown, which is the stimulation of neurite outgrowth in a PC12 cell line. […] The beneficial effects (prevention/treatment) of HT-1001 may apply to degenerative diseases such as senile dementia, Parkinson's disease, Alzheimer's disease, multi-infarct dementia, etc. Alzheimer's disease (AD) is associated with degeneration of cholinergic nerve tracts including projections from the basal forebrain to the cortex and hippocampus. The PC12 (pheochromocytoma) cell line is one of the models for the study of the development of these nerve tracts. The cell line is phenotypically a chromaffin cell line, but can be induced to express adrenergic and cholinergic markers as well. This model has the advantages that (1) it is an immortalized cell line, (2) it is sensitive to, but not dependent upon, NGF for survival, and (3) it shares many properties in common with the central cholinergic neurons of the basal forebrain. It has been noted that PC12 cells are not sensitive to all of the trophic factors that central cholinergic neurons respond to, whereas central cholinergic neurons respond to all trophic factors that PC12 cells respond to. […] The cellular responses to Nerve Growth Factor (NGF) and samples were determined by counting the number of cells containing processes in PC12 cells. […] The cells and neurites were counted as follows: The cells with circular or global shape and no neurite outgrowth were scored as 0 (S0). […] Cells with more than two small neurites on the cell bodies were scored as S2. Cells with one or two neurites with a length of at least two times diameter as their body were scored as S3. Cells with more than two long neurites were scored as S4. The neurite index was calculated as below: Neurite index (In)=total neurite Score (ΣS)/total cell number (.[…] is the cell number of every cell field. The test samples included: […]

[9] = test system: rats; assay: Morris water maze, learning and memory, scopolamine induced amnesia; type: in vivo, rat; conditions: for mean latency: scopolamine 2 mg/kg, all scopolamine treated animals; for memory effect of scopolamine treatment: 2 mg/kg
From the text: First, we studied the effects of HT1001 on Learning and Memory. […] As HT1001 is a mixture of ginsenosides, it may not have the same properties as pure Rb1. […] Rats are required to learn the location of a hidden platform in a swimming pool. […] The effects of HT1001 on memory can also be examined in scopolamine induced amnesia. If HT1001 enhances memory it should protect against memory loss in scopolamine treated animals.
The Morris water maze task was based on methods previously described (Pitsikas et al, Pharmacol. Biochem. Behav. 47: 95-99 (1994); Smith et al, Psychopharmacol. 114: 651-656 (1994)). The apparatatus consisted of a circular pool (1.7 m diameter, 35 cm deep) which contained water (30° C.) made cloudy by the presence of powdered milk. A moveable platform (10 cm×11.5 cm and 20 cm tall) was placed in the pool such that it was submerged by 3 cm and could not be seen. Each trial involved placing the rat in the pool in one of the four equally spaced quadrants in which the pool was divided. Visual cues consisting of large posters were placed on the walls of the room in which the experiment was conducted, and the experimenters maintained established positions throughout each experiment. During the learning period, animals were allowed to swim freely until they found the escape platform. […] During the initial learning period, all rats were tested sequentially and were given 4 trials per day during which the escape platform was located in a fixed position in the center of the pool. During the scopolamine trials rats were tested sequentially three times on cach day with the three trials being performed between 30 and 45 minutes following scopolamine or saline injection, The latency to reach the platform was recorded.
Experimental Design for Learning and Memory Testing
The specific aim of the experiment was to test if HT1001 affected the acquisition, retention and/or recall of a new task in the presence of scopolamine-induced amnesia. Rats were initially divided into two groups and fed either water (0.5 ml) or HT1001 (200 mg/kg/day in 0.5 ml water by gavage) for the duration of the experiment. Eight days after the initiation of water or HT1001 administration, rats were given the task of learning the position of a platform concealed at the center of the Morris water maze. The rats were placed in the pool 4 times per day for 5 days and the time required to find the platform was recorded (maximum duration 300 seconds). Latency became shorter as the rats learned the task. On day 14, the two groups of rats were further subdivided into four groups. […] In each instance the time to locate the platform (latency) was recorded. […]

Molecule: NNCCc1ccccc1 [phenylzine]
- inhibition at 100 µM [1]: 97.5%
- inhibition at 100 µM [2]: 93%

Molecule: CC(N)Cc1ccccc1 (stereo not drawn) [amphetamine]
- inhibition of noradrenaline uptake [3]: 83%
- inhibition of dopamine uptake [4]: 92.4%
- inhibition of 5-hydroxytryptamine uptake [5]: 94%

Molecule: C[N+]1(C)CCOC(O)(c2ccc(-c3ccc(C4(O)C[N+](C)(C)CCO4)cc3)cc2)C1 (stereo not drawn) [HC3]
- choline uptake by rat brain synaptosomes (FIG. 28, in words) [6]: inhibits choline uptake
- choline uptake (literature) [7]: inhibit choline uptake

Molecule: Nerve Growth Factor [NGF]
- neurite outgrowth (FIG. 29) [8]: increased neurite outgrowth in PC12 cells in a dose-dependent manner

Molecule: CN1[C@@H]2C[C@@H](OC(=O)[C@H](CO)c3ccccc3)C[C@H]1[C@@H]1O[C@@H]12 [scopolamine]
- mean latency ([9]; day 14, third trial): 39.5 ± 8.2 s
- memory effect of scopolamine treatment ([9]; day 15): produces a memory deficit
- mean latency ([9]; day 16, third trial): 18.4 ± 2.9 s
- memory effect of scopolamine treatment ([9]; day 17): produces a memory deficit
